Where two headings read alike, the source gives them in different places.
Experiments:
SERT [1] = biological target: T1, SERT (Rattus norvegicus, UniProt P31652); conditions: Rat brain, [3H]paroxetine; SERT competitive binding; cited from earlier work
[2] = biological target: T2, human serotonin transporter (hSERT) (Homo sapiens, UniProt P31645); assay: Inhibition of [3H]5-HT uptake into HEK-293 cells transfected with hSERT; assay type: cell-based; conditions: hSERT HEK-293 cells, 20° C.
T2 construct: expressed in transfected cells; host or cells: HEK-293

[3] = biological target: T3, rat frontal cortical SERT, rSERT (Rattus norvegicus, UniProt P31652); assay: Competition binding assay, rat frontal cortical SERT, [3H]Paroxetine; conditions: Competitive binding, rat brain cortex homogenate, 20° C., n = 3, mean±s.e.m.
T3 construct: rat frontal cortical SERT, rSERT; from tissue; host or cells: rat frontal cortex
Experimental: The compounds of the invention are potent (sub-nanomolar concentration) pharmacological inhibitor binding ligands of the serotonin transporter. Examples of the in vitro inhibition competitive pharmacological binding SERT potencies are shown in Table 3, where the binding constant Ki values are reported as mean±s.e.m., n=3 or greater. The binding constants were determined using an established competition assay (rat frontal cortical SERT, rSERT; [^3H]Paroxetine, 3 h incubation time at 20° C., nonspecific binding determined as the difference in the absence and presence of saturating levels of non-radioactive 6-nitroquipazine) [Gerdes 2000] which is a modified method of Habert [Habert 1985]. […] The ligands of the invention are considered to have antidepressant qualities since they effectively compete with the radiolabelled form of the known antidepressant Paroxetine ([^3H]Paroxetine) at the serotonin transporter [Tatsumi 1997, Hyttel 1994].

SERT [4] = biological target: T1, SERT; conditions: Rat brain, [3H]citalopram; SERT competitive binding; cited from earlier work

T1 sequence (P31652 whole entry): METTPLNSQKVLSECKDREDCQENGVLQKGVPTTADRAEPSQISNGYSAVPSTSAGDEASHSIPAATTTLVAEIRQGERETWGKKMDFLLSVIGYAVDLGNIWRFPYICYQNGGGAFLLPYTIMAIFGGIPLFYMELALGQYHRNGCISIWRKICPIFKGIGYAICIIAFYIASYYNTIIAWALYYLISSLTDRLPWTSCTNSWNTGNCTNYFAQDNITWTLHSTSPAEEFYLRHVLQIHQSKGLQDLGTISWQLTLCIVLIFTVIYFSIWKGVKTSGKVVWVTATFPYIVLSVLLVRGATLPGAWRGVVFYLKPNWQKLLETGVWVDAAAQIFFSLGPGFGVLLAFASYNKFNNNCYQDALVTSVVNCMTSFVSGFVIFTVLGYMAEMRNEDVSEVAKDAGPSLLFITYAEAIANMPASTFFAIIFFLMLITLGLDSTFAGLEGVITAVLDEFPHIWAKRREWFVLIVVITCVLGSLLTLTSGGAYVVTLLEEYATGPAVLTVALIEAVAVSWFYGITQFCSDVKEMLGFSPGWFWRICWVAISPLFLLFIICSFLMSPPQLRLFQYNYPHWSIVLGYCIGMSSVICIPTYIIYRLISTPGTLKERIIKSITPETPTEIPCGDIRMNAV
T3 sequence (P31652 whole entry): as above
T2 sequence (P31645 whole entry): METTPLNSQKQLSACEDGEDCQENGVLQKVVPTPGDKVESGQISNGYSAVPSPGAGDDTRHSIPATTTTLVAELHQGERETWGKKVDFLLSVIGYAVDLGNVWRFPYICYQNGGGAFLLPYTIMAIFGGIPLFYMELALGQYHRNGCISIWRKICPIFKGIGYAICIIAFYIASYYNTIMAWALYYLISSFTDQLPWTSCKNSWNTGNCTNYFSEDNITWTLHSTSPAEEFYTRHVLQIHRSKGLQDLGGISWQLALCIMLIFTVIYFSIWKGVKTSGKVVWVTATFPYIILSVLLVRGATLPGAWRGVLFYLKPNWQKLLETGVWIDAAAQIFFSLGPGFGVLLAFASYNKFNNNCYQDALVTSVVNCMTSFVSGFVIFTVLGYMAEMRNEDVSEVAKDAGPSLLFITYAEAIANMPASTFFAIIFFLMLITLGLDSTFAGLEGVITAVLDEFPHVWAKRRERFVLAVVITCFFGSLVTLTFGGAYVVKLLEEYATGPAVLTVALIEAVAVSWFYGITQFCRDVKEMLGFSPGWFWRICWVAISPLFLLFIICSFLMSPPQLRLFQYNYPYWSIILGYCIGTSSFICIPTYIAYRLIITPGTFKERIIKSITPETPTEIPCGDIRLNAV

Ki [3]	SMILES	Ki (SERT [1])	further results
–	O=[N+]([O-])c1ccc2nc(N3CCNCC3)ccc2c1I [Cpd 6]	0.17 nM	–
0.25 ± 0.03 nM	COC[C@H]1CNCCN1c1ccc2cc([N+](=O)[O-])ccc2n1 [Cpd 13R]	–	Ki [2]: 0.15 nM
0.28 ± 0.09 nM	O=[N+]([O-])c1ccc2nc(N3CCNCC3COCCCF)ccc2c1 (racemic) [Cpd 2, 2-[2-((3-Fluoropropoxy)methyl)piperazine-1-yl]-6-nitroquinoline]	–	–
0.68 ± 0.04 nM	O=[N+]([O-])c1ccc2nc(N3CCNCC3CO)ccc2c1 (racemic) [Cpd 14]	–	–
0.25 ± 0.08 nM	O=[N+]([O-])c1ccc2nc(N3CCNC[C@@H]3COCCCF)ccc2c1 [Cpd 2R]	–	–
0.42 ± 0.01 nM	COCC1CNCCN1c1ccc2cc([N+](=O)[O-])ccc2n1 (racemic) [Cpd 13]	–	Ki [2]: 0.47 nM
–	O=[N+]([O-])c1ccc2nc(N3CCNCC3)c(CCCF)cc2c1 [Cpd 10]	–	Ki (SERT [4]): 0.31 nM
1.52 ± 0.1 nM	COC[C@@H]1CNCCN1c1ccc2cc([N+](=O)[O-])ccc2n1 [Cpd 13S, (S)-(−)-2-[2-(Methoxymethyl)piperazin-1-yl]-6-nitroquinolin]	–	Ki [2]: 1.66 nM
–	O=[N+]([O-])c1ccc2nc(N3CCNCC3)ccc2c1F [Cpd 8]	0.25 nM	–
–	O=[N+]([O-])c1ccc2nc(N3CCNCC3)ccc2c1 [Cpd 5]	0.16 nM	–
–	CC1CNCCN1c1ccc2cc([N+](=O)[O-])ccc2n1 (stereo not drawn) [Cpd 12]	0.08 nM	–
1.56 ± 0.88 nM	O=[N+]([O-])c1ccc2nc(N3CCNC[C@H]3COCCCF)ccc2c1 [Cpd 2S]	–	–
